This is an account of results in patent publication US10683293B2, “Optionally fused heterocyclyl-substituted derivatives of pyrimidine useful for the treatment of inflammatory, metabolic, oncologic and autoimmune diseases” (NUEVOLUTION A/S, priority 2014, dated 2020).

One may read the IC50 as the midpoint of a concentration-inhibition curve. Usually inhibition stands for the percentage by which the read-out fell short of the control.

For test [1], the target named is T1, human RORγt (Ligand Binding Domain) (Homo sapiens, UniProt P51449).
T1 construct: purchased Crelux (Planegg, Germany) batch no PC5032-1
T1 sequence (P51449 269-508 limits assumed): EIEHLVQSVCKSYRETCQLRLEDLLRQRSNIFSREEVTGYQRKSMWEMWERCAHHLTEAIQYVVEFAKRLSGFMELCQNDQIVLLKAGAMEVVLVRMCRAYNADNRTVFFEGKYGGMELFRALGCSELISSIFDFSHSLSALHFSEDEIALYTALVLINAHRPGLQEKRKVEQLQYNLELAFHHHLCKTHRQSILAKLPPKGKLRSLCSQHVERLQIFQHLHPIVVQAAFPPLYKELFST
The experiment in a line: Fluorescence Polarization (FP) Assay. The settings on record: 100 nM human RORγt LBD, 25 nM TAMRA probe, values are activity range bounds. In outline:
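Binding to the RORγt ligand-binding domain was followed by FP. Displacement of a TAMRA-tagged RORγt ligand tracer (910 g/mol) was measured, with DMSO-only wells as negative control.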
For orientation: In fluorescence polarisation assays a small probe gives low polarisation when free and higher when bound to something large.

The target in test [2] is T2, ligand binding domain of human RORγ (Homo sapiens, UniProt P51449).
T2 construct: host or cells: HEK293t
T2 sequence (P51449 269-508 limits assumed): T1 sequence (P51449 269-508 limits assumed)
Description: RORγ Reporter Assay (Gal4). Particulars: for inhibition at 1 µM: HEK-293T, 1 μM test compound, HEK293t RORγ reporter cells, 24 hour, read-out: Gal4 activity range @ 1 μM (% inhibition); for Gal4 activity range @ 0.1 μM (% inhibition): RORγ Reporter Assay (Gal4), HEK293t reporter cells, compound at 0.1 μM, values are activity range bounds. In kind it is cell-based. On the procedure: The activity of the compounds was evaluated using a Fluorescence Polarization (FP) Assay and, RORγ Reporter assay (also referred to as Gal4 assay). The FP assay is an in vitro assay monitoring binding within the ligand binding pocket. The RORγ and the Th17 assays (another suitable assay) are both cell-based assays monitoring functional activity of the compound assayed.
RORγ Reporter Assay (Gal4)
Cell-based RORγ functional assays were performed using a commercially available assay product (INDIGO Biosciences, State College, Pa., USA; product # IB04001). The RORγ reporter cells are HEK293t cells transfected with one vector that provides high level constitutive expression of a hybrid protein comprised of the yeast Gal4-DNA binding domain fused to the ligand binding domain of human RORγ, and a second vector comprising the firefly luciferase cDNA functionally linked to the upstream activation sequence (UAS) of yeast Gal4. A suspension of RORγ Reporter Cells was prepared using the protocol and culture medium provided in the kit product, and 100 μl of the Reporter Cell suspension was then dispensed into wells of a white, collagen-treated, 96-well assay plate. Concentrated stocks of test compounds were prepared in DMSO, then further diluted using media provided in the kit to generate ‘2×-concentration’ treatment media. 100 μl of medium for each respective treatment concentration dispensed into triplicate assay wells, thereby combining with the reporter cells. All media formulations contained 10% charcoal stripped Fetal Bovine Serum, but are otherwise proprietary to INDIGO Biosciences. Final treatment concentrations for each test compound were 1,000 nM and 100 nM, each with 0.1% residual DMSO. Separate control treatments were media supplemented with vehicle only (0.1% DMSO) to determine the constitutive level of RORγ activity in the reporter cells, and the reference inverse-agonist ursolic acid (f.c. 6,000 nM to 8.2 nM in 3-fold decrements) to establish a positive control inverse-agonist dose response. Assay plates were placed in a 37° C., 5% CO2, 85% humidity incubator for 24 hour. Treatment media were then discarded, 100 μl of luciferase detection reagent was added to each well, and relative light units (RLUs) were quantified from each assay well using a plate reading luminometer. Values of average RLU+/−standard deviation were computed for all treatment sets, followed by the calculations of fold-reduction: [Average RLUVehicle/Average RLUTest Cmpd]. Percent-reduction of RORγ activity in response to respective test compound treatments was calculated: [100*(1−[Ave RLUTest Cmpd/Ave RLUVehicle)] where the theoretical minimum reduction (0% reduction) derives from Vehicle treatment only, no treatment compound. In some aspects it may be of interest to provide compounds with selective modulation of RORγ for example compounds that are selective to RORγ over RORα, compounds that are selective for RORγ versus RORPβ, and compounds that are selective for RORγ versus BOTH RORα and RORPβ. It may also be of interest to provide compounds that are selective for RORγ versus further nuclear hormone receptors such as CAR1, FXR, GR, LXRα, LXRβ, PPARα, PXR, RARα, RXRα, TRα, VDR. It is apparent to those skilled in the art that these nuclear hormone receptors are merely examples, and that selectivity against other nuclear receptors may also be of interest. It may for example be of interest to provide compounds that modulate RORγ and one or more further nuclear hormone receptors, as well as compounds that modulate both RORγ and RORα, or RORγ and RORβ. It may also be of interest to provide compounds that modulate RORγ and BOTH RORα and RORP, as well as compounds that modulate both RORγ and one or more further nuclear hormone receptors such as CAR1, FXR, GR, LXRα, LXRβ, PPARα, PXR, RARα, RXRα, TRα, VDR. It is apparent to those skilled in the art that these nuclear hormone receptors are merely examples, and that modulation of even other nuclear receptors may also be of interest. […]
(A reporter such as luciferase makes a cellular process visible.)

In test [1], `N#CCc1ccc(CNc2ncnc(N(Cc3ccc(C(F)(F)F)cc3)C3CC3)c2F)cc1` [Example A14, 2-[4-[[[6-[cyclopropyl-[[4-(trifluoromethyl)phenyl]methyl]amino]-5-fluoro-pyrimidin-4-yl]amino]methyl]phenyl]acetonitrile] came in with an IC50 of under 500 nM. For the same molecule, in test [2], the inhibition at 1 µM is over 80% and the “Gal4 activity range @ 0.1 μM (% inhibition)” value was over 50 % inhibition.

In turn, `NC(=O)Cc1ccc(CNc2ncnc(N(Cc3ccc(C(F)(F)F)cc3)C3CCC3)c2F)cc1` [Example A15, 2-[4-[[[6-[cyclobutyl-[[4-(trifluoromethyl)phenyl]methyl]amino]-5-fluoro-pyrimidin-4-yl]amino]methyl]phenyl]acetamide] had a 50% inhibitory concentration (IC50) in test [1] of under 500 nM. In test [2], the inhibition at 1 µM was over 80% and the “Gal4 activity range @ 0.1 μM (% inhibition)” value was over 20 % inhibition.

As to `COC(=O)CC(c1ccc(C(F)(F)F)cc1)N(c1ncnc(NCc2ccc(CC(N)=O)cc2)c1F)C1CC1` (stereo not drawn) [Example A16, methyl 3-[[6-[[4-(2-amino-2-oxo-ethyl)phenyl]methylamino]-5-fluoro-pyrimidin-4-yl]-cyclopropyl-amino]-3-[4-(trifluoromethyl)phenyl]propanoate], in test [1], the IC50 was under 500 nM. In test [2], the inhibition at 1 µM is over 20% and the “Gal4 activity range @ 0.1 μM (% inhibition)” value is over 0 % inhibition.

For `NC(=O)Cc1ccc(CNc2ncnc(N(C3CC3)C(c3ccc(C(F)(F)F)cc3)C3CCC3)c2F)cc1` (stereo not drawn) [Example A17, 2-[4-[[[6-[[cyclobutyl-[4-(trifluoromethyl)phenyl]methyl]-cyclopropyl-amino]-5-fluoro-pyrimidin-4-yl]amino]methyl]phenyl]acetamide], the IC50 in test [1] was under 2000 nM. In test [2], the inhibition at 1 µM was over 50% and the “Gal4 activity range @ 0.1 μM (% inhibition)” value was over 20 % inhibition.

The molecule `NC(=O)Cc1ccc(CNc2ncnc(N(Cc3ccc(C(F)(F)F)cc3)CC3CC3)c2F)cc1` [Example A18, 2-[4-[[[6-[cyclopropylmethyl-[[4-(trifluoromethyl)phenyl]methyl]amino]-5-fluoro-pyrimidin-4-yl]amino]methyl]phenyl]acetamide] returned a 50% inhibitory concentration (IC50) in test [1] of under 500 nM. For the same molecule, in test [2], the inhibition at 1 µM was over 80% and the “Gal4 activity range @ 0.1 μM (% inhibition)” value is over 50 % inhibition.

In turn, `CN(Cc1ccc(C(F)(F)F)cc1)c1ncnc(NCc2ccc(CC(N)=O)cc2)c1F` [Example A19, 2-[4-[[[5-fluoro-6-[methyl-[[4-(trifluoromethyl)phenyl]methyl]amino]pyrimidin-4-yl]amino]methyl]phenyl]acetamide] yielded a half-maximal inhibitory concentration (IC50) in test [1] of under 500 nM. Also, in test [2], the inhibition at 1 µM was over 80% and the “Gal4 activity range @ 0.1 μM (% inhibition)” value was over 20 % inhibition.

The molecule `CN(Cc1ccc(OC(F)(F)F)cc1)c1ncnc(NCc2ccc(CC(N)=O)cc2)c1F` [Example A20, 2-[4-[[[5-fluoro-6-[methyl-[[4-(trifluoromethoxy)phenyl]methyl]amino]pyrimidin-4-yl]amino]methyl]phenyl]acetamide] registered an IC50 in test [1] of under 2000 nM. Further, in test [2], the inhibition at 1 µM is over 50% and the “Gal4 activity range @ 0.1 μM (% inhibition)” value is recorded as over 20 % inhibition.

Take `NC(=O)Cc1ccc(CNc2ncnc(N(Cc3ccccc3)C3CC3)c2F)cc1` [Example A42, 2-[4-[[[6-[benzyl(cyclopropyl)amino]-5-fluoro-pyrimidin-4-yl]amino]methyl]phenyl]acetamide]: in test [1], the IC50 was under 500 nM. Besides, in test [2], the inhibition at 1 µM is over 50% and the “Gal4 activity range @ 0.1 μM (% inhibition)” value is on record as over 20 % inhibition.

For the molecule `CN(Cc1ccc(-n2cccn2)cc1)c1ncnc(NCc2ccc(CC(N)=O)cc2)c1F` [Example A52, 2-[4-[[[5-fluoro-6-[methyl-[(4-pyrazol-1-ylphenyl)methyl]amino]pyrimidin-4-yl]amino]methyl]phenyl]acetamide], in test [1], the IC50 was under 500 nM. For the same molecule, in test [2], the inhibition at 1 µM is over 50% and the “Gal4 activity range @ 0.1 μM (% inhibition)” value is on record as over 0 % inhibition.
